According to patent publication US11505523B2, “HDAC8 inhibitors for treating cancer” (City of Hope, priority 2013, dated 2022):

Columns and labels:
H1299 cells = test: Cytotoxicity / anti-proliferative activity in H1299 lung cancer cells; conditions: read-out: Cytotoxicity IC50 H1299; mean SD of three determinations
CL1-5 cells = test: Cytotoxicity / anti-proliferative activity in CL1-5 lung cancer cells; conditions: read-out: Cytotoxicity IC50 Cl1-5; mean SD of three determinations
Cl1-1 cells = test: Cytotoxicity / anti-proliferative activity in CL1-1 lung cancer cells; conditions: read-out: Cytotoxicity IC50 Cl1-1; mean SD of three determinations
[1] = tested on: p53 target genes in 32D-CM cells; test: qRT-PCR of p53 target genes in 32D-CM cells; assay type: cell-based; conditions: 10 μM, 16 h
HeLa nuclear HDACs = test: Inhibition of HeLa nuclear HDACs (HeLa nuclear extract, mainly HDACs1-3); assay type: biochemical; conditions: read-out: HeLa HDAC IC50
[2] = tested on: Ac-p53 (K379) in 32D-CM cells; test: Western blot of Ac-p53 in CBFβ-SMMHC (CM)-expressing 32D cells; assay type: cell-based
Excerpt: Cells were lysed in RIPA buffer containing protease inhibitor cocktail (Roche) and MG132. Antibodies used for IP were conjugated with protein A/G beads using the antibody cross-linking kit (Pierce Biotechnology, Rockford, Ill.) following manufacturer's protocol. For Western blot, proteins were resolved in 10% SDS-PAGE. The antibodies used induced anti-FLAG (Sigma), anti-HDAC8, anti-CBFβ (Santa Cruz), anti-p53 (DO-1), anti-Ac-p53 (K379) (Cell Signaling), anti-p53 (Cell signaling) and anti-β-actin (Sigma). Horseradish peroxidase-conjugated anti-rabbit or anti-mouse secondary antibodies (Jackson ImmunoResearch, West Grove Pa.) were used, followed by detection using the SuperFemto kit (Pierce Biotechnology, Rockford, Ill.).
Class 1 HDACs, including HDAC1, HDAC2, and HDAC3, reportedly could inhibit p53 activity by deacetylating p53 [41-43]. […] To test this, we used lentivirus (pLKO. 1) mediated expression of 2 independent small-hairpin (sh)-RNA sequences against Hdac8 to specifically knock-down Hdac8 in 32D-CM cells. Cells were exposed to IR (3Gy) and analyzed for levels of p53 acetylation 6 h after.

HDAC6 = HDAC6 (Homo sapiens (Human), UniProt Q9UBN7); test: Inhibition of purified HDAC6; conditions: read-out: HDAC 6 IC50; class II
HDAC4 = HDAC4 (Homo sapiens (Human), UniProt P56524); test: Inhibition of purified HDAC4; conditions: read-out: HDAC 4 IC50; class II
HDAC10 = HDAC10 (Homo sapiens (Human), UniProt Q969S8); test: Inhibition of purified HDAC10; conditions: read-out: HDAC 10 IC50; class II
HDAC8 = HDAC8 (Homo sapiens (Human), UniProt Q9BY41); test: Inhibition of HDAC8; assay type: biochemical
HDAC1 = HDAC1 (Homo sapiens (Human), UniProt Q13547); test: Inhibition of purified HDAC1; assay type: biochemical; conditions: class I; read-out: HDAC 1 IC50
HDAC11 = HDAC11 (Homo sapiens (Human), UniProt Q96DB2); test: Inhibition of purified HDAC11; conditions: read-out: HDAC 11 IC50; class IV
HDAC3 = HDAC3 (Homo sapiens (Human), UniProt O15379); test: Inhibition of purified HDAC3; conditions: read-out: HDAC 3 IC50; class I
HDAC2 = HDAC2 (Homo sapiens (Human), UniProt Q92769); test: Inhibition of purified HDAC2; conditions: read-out: HDAC 2 IC50; class I

HDAC8, sequence (Q9BY41 whole entry): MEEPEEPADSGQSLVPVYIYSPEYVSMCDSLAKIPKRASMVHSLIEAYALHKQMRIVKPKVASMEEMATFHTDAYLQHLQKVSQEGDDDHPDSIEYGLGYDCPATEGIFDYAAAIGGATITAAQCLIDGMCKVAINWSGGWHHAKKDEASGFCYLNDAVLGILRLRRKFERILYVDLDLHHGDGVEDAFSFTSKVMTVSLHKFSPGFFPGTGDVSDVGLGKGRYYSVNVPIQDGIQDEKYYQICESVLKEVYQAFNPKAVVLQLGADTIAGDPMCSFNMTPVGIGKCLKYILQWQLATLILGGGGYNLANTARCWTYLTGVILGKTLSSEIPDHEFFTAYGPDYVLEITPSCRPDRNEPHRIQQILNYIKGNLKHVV
HDAC1, sequence (Q13547 whole entry, species assumed): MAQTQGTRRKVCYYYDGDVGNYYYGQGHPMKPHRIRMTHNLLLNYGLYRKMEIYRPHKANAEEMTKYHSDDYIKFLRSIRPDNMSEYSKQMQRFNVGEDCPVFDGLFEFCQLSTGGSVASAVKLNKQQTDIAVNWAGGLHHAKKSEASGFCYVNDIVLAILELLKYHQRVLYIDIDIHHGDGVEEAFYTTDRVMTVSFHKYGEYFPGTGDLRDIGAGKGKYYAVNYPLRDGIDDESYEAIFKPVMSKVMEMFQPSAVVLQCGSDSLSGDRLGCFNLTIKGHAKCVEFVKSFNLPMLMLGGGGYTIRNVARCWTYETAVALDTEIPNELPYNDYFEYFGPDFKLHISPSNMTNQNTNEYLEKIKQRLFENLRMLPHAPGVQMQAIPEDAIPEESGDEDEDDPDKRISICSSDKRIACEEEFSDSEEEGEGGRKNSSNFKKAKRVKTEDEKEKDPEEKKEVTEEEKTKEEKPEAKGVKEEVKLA
HDAC3, sequence (O15379 whole entry, looked up, species assumed): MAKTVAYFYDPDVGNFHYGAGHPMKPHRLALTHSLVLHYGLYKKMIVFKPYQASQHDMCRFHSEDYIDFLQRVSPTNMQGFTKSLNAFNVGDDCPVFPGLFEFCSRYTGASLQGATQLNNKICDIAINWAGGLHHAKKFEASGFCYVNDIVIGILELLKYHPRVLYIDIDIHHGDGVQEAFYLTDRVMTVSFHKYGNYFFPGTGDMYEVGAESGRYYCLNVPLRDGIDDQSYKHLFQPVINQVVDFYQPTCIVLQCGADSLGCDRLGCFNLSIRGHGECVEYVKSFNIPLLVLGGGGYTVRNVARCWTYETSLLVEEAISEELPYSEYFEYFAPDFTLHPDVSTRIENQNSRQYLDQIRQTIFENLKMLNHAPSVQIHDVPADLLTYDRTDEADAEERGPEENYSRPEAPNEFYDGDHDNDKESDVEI
HDAC3, sequence (Q9Y618 whole entry partner, looked up, species assumed): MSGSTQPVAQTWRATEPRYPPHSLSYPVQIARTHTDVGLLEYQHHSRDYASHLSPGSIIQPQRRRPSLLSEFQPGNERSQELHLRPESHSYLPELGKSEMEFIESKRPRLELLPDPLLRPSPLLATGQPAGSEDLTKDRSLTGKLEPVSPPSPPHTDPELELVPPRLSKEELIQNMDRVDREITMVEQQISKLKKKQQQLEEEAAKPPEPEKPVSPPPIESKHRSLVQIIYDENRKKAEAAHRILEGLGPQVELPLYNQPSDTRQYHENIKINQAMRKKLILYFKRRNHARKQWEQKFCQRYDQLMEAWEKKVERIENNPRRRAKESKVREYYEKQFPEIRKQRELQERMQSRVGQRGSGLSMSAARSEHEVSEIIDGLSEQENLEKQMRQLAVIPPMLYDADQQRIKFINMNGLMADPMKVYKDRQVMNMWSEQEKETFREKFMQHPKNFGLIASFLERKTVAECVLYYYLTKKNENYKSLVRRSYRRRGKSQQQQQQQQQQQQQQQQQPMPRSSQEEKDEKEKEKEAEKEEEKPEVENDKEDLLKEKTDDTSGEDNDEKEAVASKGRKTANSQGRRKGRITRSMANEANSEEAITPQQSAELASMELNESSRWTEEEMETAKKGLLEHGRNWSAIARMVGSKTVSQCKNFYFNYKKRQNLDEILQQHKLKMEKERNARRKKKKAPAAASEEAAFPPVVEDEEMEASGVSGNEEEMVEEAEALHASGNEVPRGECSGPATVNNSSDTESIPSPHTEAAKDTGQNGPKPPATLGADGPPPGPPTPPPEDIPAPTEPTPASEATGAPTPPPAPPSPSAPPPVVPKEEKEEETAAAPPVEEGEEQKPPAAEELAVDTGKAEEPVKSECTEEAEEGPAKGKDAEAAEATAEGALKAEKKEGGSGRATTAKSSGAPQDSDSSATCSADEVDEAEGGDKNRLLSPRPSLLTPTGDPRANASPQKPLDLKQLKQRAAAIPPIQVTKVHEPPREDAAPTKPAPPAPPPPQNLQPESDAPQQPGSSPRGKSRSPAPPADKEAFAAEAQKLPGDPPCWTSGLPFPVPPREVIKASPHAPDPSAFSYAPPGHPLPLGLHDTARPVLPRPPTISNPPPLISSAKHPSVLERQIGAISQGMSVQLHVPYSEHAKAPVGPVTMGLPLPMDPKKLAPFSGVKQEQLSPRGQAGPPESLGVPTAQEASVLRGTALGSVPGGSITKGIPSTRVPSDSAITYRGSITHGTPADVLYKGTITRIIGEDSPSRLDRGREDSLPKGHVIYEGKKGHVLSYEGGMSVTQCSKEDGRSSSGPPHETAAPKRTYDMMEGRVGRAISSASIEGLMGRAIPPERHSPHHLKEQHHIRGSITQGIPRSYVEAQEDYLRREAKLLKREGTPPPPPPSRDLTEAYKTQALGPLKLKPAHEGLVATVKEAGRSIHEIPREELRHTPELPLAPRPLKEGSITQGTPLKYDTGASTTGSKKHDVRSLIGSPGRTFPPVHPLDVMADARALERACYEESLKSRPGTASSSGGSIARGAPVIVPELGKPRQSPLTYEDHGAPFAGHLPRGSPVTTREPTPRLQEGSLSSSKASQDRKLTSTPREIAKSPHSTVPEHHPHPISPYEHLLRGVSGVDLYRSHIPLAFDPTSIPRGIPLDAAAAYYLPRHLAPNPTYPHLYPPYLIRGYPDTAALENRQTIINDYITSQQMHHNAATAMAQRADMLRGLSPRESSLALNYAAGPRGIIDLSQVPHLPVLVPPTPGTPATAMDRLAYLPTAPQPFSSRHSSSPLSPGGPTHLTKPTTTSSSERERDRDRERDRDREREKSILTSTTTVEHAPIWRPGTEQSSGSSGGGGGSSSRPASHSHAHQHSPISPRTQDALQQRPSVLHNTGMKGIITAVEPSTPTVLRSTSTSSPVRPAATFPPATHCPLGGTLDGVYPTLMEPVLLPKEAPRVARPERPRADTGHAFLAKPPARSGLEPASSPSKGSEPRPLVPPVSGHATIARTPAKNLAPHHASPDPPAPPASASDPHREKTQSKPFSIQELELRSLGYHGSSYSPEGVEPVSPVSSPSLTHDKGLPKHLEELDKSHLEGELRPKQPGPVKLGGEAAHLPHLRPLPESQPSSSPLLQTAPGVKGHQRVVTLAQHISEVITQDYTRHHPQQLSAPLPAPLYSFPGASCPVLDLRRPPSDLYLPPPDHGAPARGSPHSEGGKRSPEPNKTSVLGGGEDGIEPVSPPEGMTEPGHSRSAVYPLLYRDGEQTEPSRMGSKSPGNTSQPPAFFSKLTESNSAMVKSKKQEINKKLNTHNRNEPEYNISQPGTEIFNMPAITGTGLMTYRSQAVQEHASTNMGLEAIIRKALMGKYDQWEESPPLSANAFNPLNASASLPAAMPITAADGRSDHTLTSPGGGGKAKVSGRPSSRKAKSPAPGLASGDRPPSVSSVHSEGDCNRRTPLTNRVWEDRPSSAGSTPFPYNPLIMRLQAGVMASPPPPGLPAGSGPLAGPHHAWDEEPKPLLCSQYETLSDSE
HDAC4, sequence (P56524 whole entry, species assumed): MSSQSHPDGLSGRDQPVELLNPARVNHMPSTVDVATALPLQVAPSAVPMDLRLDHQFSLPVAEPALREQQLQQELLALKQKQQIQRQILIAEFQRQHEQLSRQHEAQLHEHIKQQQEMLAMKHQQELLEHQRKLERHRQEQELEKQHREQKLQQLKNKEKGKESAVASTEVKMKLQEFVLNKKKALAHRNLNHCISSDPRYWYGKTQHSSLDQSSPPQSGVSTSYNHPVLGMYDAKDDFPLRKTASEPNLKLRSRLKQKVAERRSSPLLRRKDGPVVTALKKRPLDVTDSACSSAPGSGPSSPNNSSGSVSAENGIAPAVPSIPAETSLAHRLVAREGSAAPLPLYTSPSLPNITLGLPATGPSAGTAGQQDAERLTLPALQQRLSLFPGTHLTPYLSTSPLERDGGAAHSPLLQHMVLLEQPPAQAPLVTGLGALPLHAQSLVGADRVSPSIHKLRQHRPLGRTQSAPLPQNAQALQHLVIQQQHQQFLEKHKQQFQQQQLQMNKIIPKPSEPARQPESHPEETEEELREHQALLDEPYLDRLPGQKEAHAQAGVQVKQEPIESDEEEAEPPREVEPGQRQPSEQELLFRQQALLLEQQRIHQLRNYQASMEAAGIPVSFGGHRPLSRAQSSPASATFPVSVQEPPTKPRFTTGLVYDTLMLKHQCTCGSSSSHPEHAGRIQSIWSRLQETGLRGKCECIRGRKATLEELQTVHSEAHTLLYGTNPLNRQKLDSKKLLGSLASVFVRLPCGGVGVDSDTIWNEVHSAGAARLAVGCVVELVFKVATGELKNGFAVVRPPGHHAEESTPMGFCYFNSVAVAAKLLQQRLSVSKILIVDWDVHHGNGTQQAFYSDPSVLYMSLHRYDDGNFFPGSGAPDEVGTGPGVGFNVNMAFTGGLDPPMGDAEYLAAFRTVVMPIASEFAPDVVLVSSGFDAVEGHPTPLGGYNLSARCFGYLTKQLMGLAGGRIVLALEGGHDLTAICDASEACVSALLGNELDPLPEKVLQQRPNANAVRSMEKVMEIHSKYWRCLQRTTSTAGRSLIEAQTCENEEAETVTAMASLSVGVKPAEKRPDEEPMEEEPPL

| Structure (SMILES) | IC50 (H1299 cells) [nM] | IC50 (CL1-5 cells) [nM] | IC50 (Cl1-1 cells) [nM] | activation of p53 targets (Bax, Puma, p21, Gadd45b and LincRNA-p21) [1] | IC50 (HeLa nuclear HDACs) [nM] | Ac-p53 level in CM-expressing cells ([2]; Western blot, 6 h) | Ac-p53 level, in combination with Nutlin-3 ([2]; compared to Nutlin-3 alone) | IC50 (HDAC6) [nM] | IC50 (HDAC4) [nM] | IC50 (HDAC10) [nM] | fold more potent than 22a (HDAC8) (HDAC8) [fold] | fold more potent than PCI34051 for HDAC8 (HDAC8) | IC50 (HDAC8; mean SD of three determinations) [nM] | HDAC8 inhibitory activity compared with PCI34051 (HDAC8; result in words) | IC50 (HDAC1) [nM] | IC50 (HDAC11) [nM] | IC50 (HDAC3) [nM] | IC50 (HDAC2) [nM] |
| --- | --- | --- | --- | --- | --- | --- | --- | --- | --- | --- | --- | --- | --- | --- | --- | --- | --- | --- |
| COc1ccc(Cn2ccc3ccc(C(=O)NO)cc32)cc1 [PCI34051, reference compound] | > 10 | > 10 | > 10 | Variable levels of activation | > 10000 | remarkably increased Ac-p53 | enhanced Ac-p53 compared to Nutlin-3 alone |  |  |  |  |  |  |  |  |  |  |  |
| COc1ccc(/C=C/C(=O)NO)c(-c2ccc(Br)cc2)c1 [Compound 22b, (E)-N-Hydroxy-4-methoxy-2-(4-bromophenyl)cinnamide] | > 10 | > 10 | > 10 |  | > 10000 |  |  | > 20 | > 20 | > 20 | 13 | around ten | 5.7 ± 0.1 | superior to PCI34051 | 4.5 ± 0.1 | > 20 | 4.8 ± 0.5 | > 20 |
